Paper PMC5431086, “The Rational Design of Therapeutic Peptides for Aminopeptidase N using a Substrate-Based Approach” (Scientific Reports, 2017)
Positions of bridges follow the written chain, without caps; N, C: chain ends. Non-standard residues stand in square brackets, D forms with d. Residues, ends and D or L forms follow the SMILES beside them. No end group written: not given here. Nle = CCCC[C@H](N)C(=O)O

Biological target: KLK7 (Homo sapiens, UniProt P49862)
Experiment: Protease selectivity panel, KLK7
Type: biochemical
Details: not given
Description: (§1) Next, the specificity of the lead peptide inhibitor cyc-LHSPW was tested against a panel of cancer-associated proteases with wide-ranging substrate specificities (Fig. 5A). APN was the only protease inhibited by cyc-LHSPW with chymotrypsin, trypsin, PSA, KLK7, aminopeptidase A, and the exopeptidase FAP all having Ki values above 100 μM. Having assessed selectivity for purified APN, we next evaluated the ability of cyc-LHSPW to preferentially bind to cells that express surface APN using flow cytometry (Fig. 5B). […] The expression of cell surface-associated APN was examined in the androgen receptor negative neuroendocrine prostate cancer cell lines PC3 and DU145 using a commercially available antibody. […] The peptide was next tested on frozen PC3 and DU145 tumor xenografts sections.
(§2) Figure 5 Determining the specificity of cyc-LHSPW for APN. (A) The cyc-LHSPW peptide was specific inhibitor of APN when compared to a panel of proteases. (B) Fluorescence microscopy of frozen PC3 (left) and DU145 (right) xenograft sections with cyc-LHSPW-(Gly)4-FITC. Sections were incubated with 250 nM of cyc-LHSPW-(Gly)4-FITC overnight and then visualized. The merged fluoresence channels are cyc-LHSPW-(Gly)4-FITC (green) and nuclei (DAPI, blue). (C) Analysis of APN inhibitor binding to PC3 (left) and DU145 cells (right) by flow cytometry. […]

KLK7, sequence (P49862 30-253, species assumed): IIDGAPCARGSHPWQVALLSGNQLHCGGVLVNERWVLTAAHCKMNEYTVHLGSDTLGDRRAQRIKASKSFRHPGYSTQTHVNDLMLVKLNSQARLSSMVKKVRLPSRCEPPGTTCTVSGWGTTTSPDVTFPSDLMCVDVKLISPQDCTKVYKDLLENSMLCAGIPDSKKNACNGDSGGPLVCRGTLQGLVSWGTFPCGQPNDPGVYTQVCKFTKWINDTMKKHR

| Compound | Ki [µM] |
| --- | --- |
| CC(C)C[C@@H]1NC(=O)[C@@H](N)CSSC[C@@H](C(=O)O)NC(=O)[C@H](Cc2c[nH]c3ccccc23)NC(=O)[C@@H]2CCCN2C(=O)[C@H](CO)NC(=O)[C@H](Cc2c[nH]cn2)NC1=O [cyc-LHSPW, Cys-LHSPW-Cys] (H-CLHSPWC-OH; disulfide 1-7) | > 100 |

Biological target: aminopeptidase A (Homo sapiens, UniProt Q07075)
Experiment: Protease selectivity panel, aminopeptidase A
Type: biochemical
Details: not given
Description: as §1, §2

aminopeptidase A, sequence (Q07075 whole entry, species assumed): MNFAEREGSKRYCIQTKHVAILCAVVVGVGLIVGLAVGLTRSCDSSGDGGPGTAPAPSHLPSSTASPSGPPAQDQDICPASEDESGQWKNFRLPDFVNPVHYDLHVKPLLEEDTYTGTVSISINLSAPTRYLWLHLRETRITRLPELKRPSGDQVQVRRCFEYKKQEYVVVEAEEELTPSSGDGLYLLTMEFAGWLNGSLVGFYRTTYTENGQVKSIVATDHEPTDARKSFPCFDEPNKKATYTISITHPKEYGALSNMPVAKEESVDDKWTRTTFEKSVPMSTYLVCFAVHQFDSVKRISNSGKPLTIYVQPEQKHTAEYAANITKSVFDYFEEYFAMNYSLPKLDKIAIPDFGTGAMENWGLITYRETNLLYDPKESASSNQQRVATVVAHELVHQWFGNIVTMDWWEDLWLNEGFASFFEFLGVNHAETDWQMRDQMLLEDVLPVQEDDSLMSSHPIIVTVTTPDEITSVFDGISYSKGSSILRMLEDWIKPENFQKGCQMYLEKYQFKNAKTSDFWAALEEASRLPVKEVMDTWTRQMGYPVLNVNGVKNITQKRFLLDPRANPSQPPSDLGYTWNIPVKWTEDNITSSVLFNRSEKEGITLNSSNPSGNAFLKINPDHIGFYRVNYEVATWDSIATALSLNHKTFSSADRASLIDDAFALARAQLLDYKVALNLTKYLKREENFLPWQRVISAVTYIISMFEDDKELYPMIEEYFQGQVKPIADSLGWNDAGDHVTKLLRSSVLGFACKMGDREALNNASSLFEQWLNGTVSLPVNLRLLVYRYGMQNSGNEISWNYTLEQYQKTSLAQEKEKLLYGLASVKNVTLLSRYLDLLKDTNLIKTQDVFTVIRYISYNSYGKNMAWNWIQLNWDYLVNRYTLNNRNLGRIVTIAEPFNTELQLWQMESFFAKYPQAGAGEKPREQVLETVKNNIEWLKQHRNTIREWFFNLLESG

| Compound | Ki [µM] |
| --- | --- |
| CC(C)C[C@@H]1NC(=O)[C@@H](N)CSSC[C@@H](C(=O)O)NC(=O)[C@H](Cc2c[nH]c3ccccc23)NC(=O)[C@@H]2CCCN2C(=O)[C@H](CO)NC(=O)[C@H](Cc2c[nH]cn2)NC1=O [cyc-LHSPW, Cys-LHSPW-Cys] (H-CLHSPWC-OH; disulfide 1-7) | > 100 |

Tested on: not listed separately
Experiment: Toxicity study, i.v. administration
Type: in vivo
Details: 40 mg/kg three time a week for four weeks (t.i.w. x4), mice
Description: The potential therapeutic efficacy of cyc-LHSPW was next tested in vitro using the PC3 and DU145 cell lines. […] Prior to in vivo therapeutic efficacy studies, a toxicity study was performed with the i.v. administration of cyc-LHSPW. […] Mice bearing established PC3 and DU145 xenografts were treated systemically via tail vein injection with 40 mg/kg of the tumor homing APN peptide cyc-NGR or the cyc-LHSPW peptide t.i.w. x4 (Fig. 6B). […] This therapeutic effect persisted to the end of the study with the cyc-LHSPW-treated mice having a tumor volume of 309.3 ± 92.7 mm^3 at day 35. […] PC3 tumors were removed and stained for the cellular proliferation marker Ki67.

| Compound | tolerability |
| --- | --- |
| CC(C)C[C@@H]1NC(=O)[C@@H](N)CSSC[C@@H](C(=O)O)NC(=O)[C@H](Cc2c[nH]c3ccccc23)NC(=O)[C@@H]2CCCN2C(=O)[C@H](CO)NC(=O)[C@H](Cc2c[nH]cn2)NC1=O [cyc-LHSPW, Cys-LHSPW-Cys] (H-CLHSPWC-OH; disulfide 1-7) | well tolerated, i.e. no signs of morbidity |

Same assay, conditions: multiple doses of 100 mg/kg, mice

| Compound | tolerability |
| --- | --- |
| CC(C)C[C@@H]1NC(=O)[C@@H](N)CSSC[C@@H](C(=O)O)NC(=O)[C@H](Cc2c[nH]c3ccccc23)NC(=O)[C@@H]2CCCN2C(=O)[C@H](CO)NC(=O)[C@H](Cc2c[nH]cn2)NC1=O [cyc-LHSPW, Cys-LHSPW-Cys] (H-CLHSPWC-OH; disulfide 1-7) | resulted in cachexia |

Same assay, conditions: single high dose of 100 mg/kg, mice

| Compound | tolerability |
| --- | --- |
| CC(C)C[C@@H]1NC(=O)[C@@H](N)CSSC[C@@H](C(=O)O)NC(=O)[C@H](Cc2c[nH]c3ccccc23)NC(=O)[C@@H]2CCCN2C(=O)[C@H](CO)NC(=O)[C@H](Cc2c[nH]cn2)NC1=O [cyc-LHSPW, Cys-LHSPW-Cys] (H-CLHSPWC-OH; disulfide 1-7) | well tolerated |

Biological target: T1, hAPN (aminopeptidase N) (Homo sapiens, UniProt P15144)
T1 construct: human APN ecdomain (residues 66–967) were expressed and purified as previously described; honeybee-melittin signal peptide (N); His6 (C); made in house; host or cells: insect cells
Experiment: Inhibition of cleavage of fluorogenic alanine substrate (H-Ala-AMC) by APN
Type: biochemical
Details: 0.1 μM APN, 100 μM H-Ala-AMC, pH 7.2, 37 °C, triplicate
Description: Five-residue long peptides containing P1–P4′ residues from primary cleavages in the library were synthesized and tested for their ability to prevent the cleavage of a fluorogenic alanine substrate by hAPN.
The peptides used in this study were custom synthesized by AAPPTEC of Louisville, KY using traditional Fmoc solid-phase peptide synthesis. All of the peptides were purified and characterized by AAPPTEC. […] Inhibition assays were performed in triplicate in a 100 mM Tris pH 7.2, Brij 35 0.0002% w/v assay buffer at 37 °C with 0.1 μM APN and 100 μM H-Ala-AMC (fluorophore). Values were recorded by Infinite pro plate reader every 2 minutes for 30 minutes with laser parameters set for excitation at 355 nm and emission at 460 nm.

T1 sequence (P15144 66-967): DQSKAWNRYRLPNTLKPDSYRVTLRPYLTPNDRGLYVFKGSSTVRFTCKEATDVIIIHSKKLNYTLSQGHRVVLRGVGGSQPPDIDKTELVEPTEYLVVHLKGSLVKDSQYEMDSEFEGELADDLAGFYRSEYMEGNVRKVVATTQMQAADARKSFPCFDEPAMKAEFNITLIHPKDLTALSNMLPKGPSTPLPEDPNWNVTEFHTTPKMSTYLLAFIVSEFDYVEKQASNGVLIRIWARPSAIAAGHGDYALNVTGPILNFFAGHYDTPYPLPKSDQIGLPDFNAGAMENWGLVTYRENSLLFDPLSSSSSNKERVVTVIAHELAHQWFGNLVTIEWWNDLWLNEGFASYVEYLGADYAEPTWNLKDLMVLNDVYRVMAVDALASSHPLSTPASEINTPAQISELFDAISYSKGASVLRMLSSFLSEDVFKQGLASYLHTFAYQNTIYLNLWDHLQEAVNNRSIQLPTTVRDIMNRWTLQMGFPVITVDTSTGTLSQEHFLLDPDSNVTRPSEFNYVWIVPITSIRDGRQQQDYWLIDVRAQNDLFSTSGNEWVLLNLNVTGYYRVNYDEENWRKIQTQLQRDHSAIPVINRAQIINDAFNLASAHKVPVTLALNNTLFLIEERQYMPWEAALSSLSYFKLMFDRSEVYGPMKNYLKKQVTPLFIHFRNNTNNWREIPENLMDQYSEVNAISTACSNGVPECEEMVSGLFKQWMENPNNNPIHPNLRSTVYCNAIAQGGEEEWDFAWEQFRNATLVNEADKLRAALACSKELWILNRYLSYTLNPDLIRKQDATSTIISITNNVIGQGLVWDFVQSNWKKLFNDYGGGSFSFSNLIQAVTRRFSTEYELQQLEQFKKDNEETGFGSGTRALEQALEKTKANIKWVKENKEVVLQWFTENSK

| Compound | IC50 [µM] |
| --- | --- |
| INDFL [INDFL] | > 500 |
| PHSPW [PHSPW] | 82.5 ± 9.3 |
| SKSGQ [SKSGQ] | > 500 |
| FYLRE [FYLRE] | > 500 |
| FDWWG [FDWWG] | > 500 |
| EHSPW [EHSPW] | 115 ± 17.2 |
| CCCC[C@H](N)C(=O)N[C@@H](Cc1c[nH]cn1)C(=O)N[C@@H](CO)C(=O)N1CCC[C@H]1C(=O)N[C@@H](Cc1c[nH]c2ccccc12)C(=O)O [nHSPW] (H-[Nle]HSPW-OH) | 6.5 ± 0.5 |
| AHLFN [AHLFN] | > 500 |
| RDLVD [RDLVD] | > 500 |
| AHSTF [AHSTF] | > 500 |
| AHSPW [AHSPW] | 9.4 ± 1.1 |
| EPKVA [EPKVA] | > 500 |
| LHSPW [LHSPW] | 10.6 ± 1.2 |
| FSLSK [FSLSK] | > 500 |
| CCCC[C@H](N)C(=O)N[C@@H](CC(=O)O)C(=O)N[C@@H](CCC(N)=O)C(=O)N[C@H](C(=O)N[C@@H](Cc1ccc(O)cc1)C(=O)O)[C@@H](C)CC [nDQIY] (H-[Nle]DQIY-OH) | > 500 |
| C[C@H](NC(=O)[C@@H](N)CC(=O)O)C(=O)N[C@@H](CCCNC(=N)N)C(=O)N[C@@H](CCCCN)C(=O)O [DARK] (H-DARK-OH) | > 500 |

Same assay, conditions: APN; Ki from IC50 by Cheng-Prusoff equation; 0.1 μM APN, 100 μM H-Ala-AMC

| Compound | Ki [µM] |
| --- | --- |
| CC(C)C[C@@H]1NC(=O)[C@@H](N)CSSC[C@@H](C(=O)O)NC(=O)[C@H](Cc2c[nH]c3ccccc23)NC(=O)[C@@H]2CCCN2C(=O)[C@H](CO)NC(=O)[C@H](Cc2c[nH]cn2)NC1=O [cyc-LHSPW, Cys-LHSPW-Cys] (H-CLHSPWC-OH; disulfide 1-7) | 24.7 ± 1.4 |

Biological target: PSA (Homo sapiens, UniProt P07288)
Experiment: Protease selectivity panel, PSA
Type: biochemical
Details: not given
Description: as §1, §2

PSA, sequence (P07288 25-261): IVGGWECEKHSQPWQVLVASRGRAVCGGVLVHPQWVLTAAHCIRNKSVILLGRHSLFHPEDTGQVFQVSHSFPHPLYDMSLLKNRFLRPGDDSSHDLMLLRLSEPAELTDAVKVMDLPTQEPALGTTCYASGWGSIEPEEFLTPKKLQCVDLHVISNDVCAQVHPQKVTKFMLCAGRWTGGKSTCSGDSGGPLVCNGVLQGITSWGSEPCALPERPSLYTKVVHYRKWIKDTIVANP

| Compound | Ki [µM] |
| --- | --- |
| CC(C)C[C@@H]1NC(=O)[C@@H](N)CSSC[C@@H](C(=O)O)NC(=O)[C@H](Cc2c[nH]c3ccccc23)NC(=O)[C@@H]2CCCN2C(=O)[C@H](CO)NC(=O)[C@H](Cc2c[nH]cn2)NC1=O [cyc-LHSPW, Cys-LHSPW-Cys] (H-CLHSPWC-OH; disulfide 1-7) | > 100 |

Biological target: T2, FAP (Homo sapiens, UniProt Q12884)
T2 sequence (Q12884 1-760): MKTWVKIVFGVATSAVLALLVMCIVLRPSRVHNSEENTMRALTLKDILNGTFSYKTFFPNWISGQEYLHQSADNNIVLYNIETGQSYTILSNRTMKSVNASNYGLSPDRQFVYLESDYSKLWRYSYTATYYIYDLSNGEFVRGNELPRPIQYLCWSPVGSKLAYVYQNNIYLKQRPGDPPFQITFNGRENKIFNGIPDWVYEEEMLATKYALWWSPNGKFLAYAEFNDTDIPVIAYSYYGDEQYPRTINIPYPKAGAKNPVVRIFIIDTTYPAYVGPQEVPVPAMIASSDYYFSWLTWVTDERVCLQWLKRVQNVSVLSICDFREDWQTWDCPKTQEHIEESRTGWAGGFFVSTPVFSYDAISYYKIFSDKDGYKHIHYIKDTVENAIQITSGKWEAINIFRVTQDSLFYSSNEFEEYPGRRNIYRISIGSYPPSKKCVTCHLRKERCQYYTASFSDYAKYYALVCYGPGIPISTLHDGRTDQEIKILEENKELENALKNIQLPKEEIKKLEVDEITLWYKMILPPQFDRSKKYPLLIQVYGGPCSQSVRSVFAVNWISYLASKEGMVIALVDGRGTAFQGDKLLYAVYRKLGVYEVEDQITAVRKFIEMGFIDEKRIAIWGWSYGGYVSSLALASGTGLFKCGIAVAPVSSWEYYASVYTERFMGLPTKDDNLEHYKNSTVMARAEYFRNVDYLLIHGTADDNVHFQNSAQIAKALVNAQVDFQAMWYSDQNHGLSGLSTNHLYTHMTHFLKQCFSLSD
Experiment: Protease selectivity panel, FAP
Type: biochemical
Details: not given
Description: as §1, §2

| Compound | Ki [µM] |
| --- | --- |
| CC(C)C[C@@H]1NC(=O)[C@@H](N)CSSC[C@@H](C(=O)O)NC(=O)[C@H](Cc2c[nH]c3ccccc23)NC(=O)[C@@H]2CCCN2C(=O)[C@H](CO)NC(=O)[C@H](Cc2c[nH]cn2)NC1=O [cyc-LHSPW, Cys-LHSPW-Cys] (H-CLHSPWC-OH; disulfide 1-7) | > 100 |
